Laboratory results: ChEMBL document CHEMBL3507680, “University of Dundee, Gates Library screen for HepG2 cell viability”

Experiment: Human HepG2 cell viability assay in 384 well format
Type: toxicity, cell-based
Design: dose 125 nL, time 70.5 hour; concentration not given beside the values
Conditions: HepG2 cells, read-out: Inhibition

Row | Structure (SMILES) | cytotoxicity at 70.5 h [%]
1 | CN(Cc1cc(-c2cccnc2)no1)C(=O)[C@@H]1CSCN1C | -8.97
2 | N#Cc1ccc(N2CCC3(CC2)CC(N2CCOCC2)CO3)cc1 (stereo not drawn) | -6.28
3 | CCN(CCn1cccn1)Cc1nc(-c2ccoc2)oc1C | 14
4 | Cc1csc(C2(NCC(O)COc3ccc(F)cc3)CCC2)n1 (stereo not drawn) | -0.482
5 | CS(=O)(=O)CCCNCc1c(Cl)cccc1N1CCCC1 | -10.5
6 | CCn1c(N)nc2cc(C(=O)NCCc3ccccc3C)cnc21 | -5.73
7 | COc1ccc(-c2n[nH]c(C)c2CC(=O)NCCN2CCOCC2)cc1 | -2.78
8 | O=C(NCc1ccc2c(c1)OCO2)N1CCCC2(C1)OCCO2 | -7.83
9 | CCN1CCC2(CC1)CC(NC(=O)c1c[nH]cn1)c1ccccc1O2 (stereo not drawn) | -6.71
10 | Cc1nc(CN(C)C2CCN(Cc3nc4c(F)cccc4[nH]3)C2)no1 (stereo not drawn) | 4.6
11 | CS(=O)(=O)N(Cc1ccon1)c1ccc2c(c1)OCO2 | -6.03
12 | CN(C)CCN1C(=O)CCCC12CCCN(C(=O)c1ccncc1)C2 (stereo not drawn) | -3.49
13 | Cc1cc(CSC2CCCN(c3cnn(C)c3)C2=O)no1 (stereo not drawn) | -3.62
14 | Cc1cc(CN(C)C(=O)CN2CCCC2=O)no1 | -15.2
15 | NC(=O)C1CCCCN1C(=O)c1ccc(Br)s1 (stereo not drawn) | -5.06
16 | O=C(Cn1cc(I)cn1)N1CCNC1=O | -8.59
17 | CCCN(CCc1ccccn1)C(=O)Cn1cnnn1 | -23.7
18 | COCCN(C)C[C@@H]1CN(C(=O)c2ccc(O)c(C)c2)C[C@@H]1CO | -2.33
19 | Cc1nnc(N2CCC(CCN(C)C)CC2)c(C#N)c1C | -11.2
20 | O=C(NCc1cc2n(n1)CCCNC2)C1(c2ccc(Cl)cc2)CCC1 | 1.64
21 | Cc1cnn(C2CN(CC(=O)NCCc3ccsc3)C2)c1 | -13.7
22 | O=C(CCC1CCCCO1)NCc1cnn(-c2ccc(F)cc2F)c1 (stereo not drawn) | 8.18
23 | Cc1c(C(=O)NCC2CCN(Cc3ccco3)C2)[nH]c2ccccc12 (stereo not drawn) | -5.18

Row | Structure (SMILES) | cytotoxicity at 70.5 h [%]
24 | O=C(CCc1nnc2ccccn2c1=O)NCc1cccnc1 | -14.8
25 | COCc1cc(N(C)Cc2cnccn2)nc(C(C)(C)C)n1 | -12.2
26 | COc1cccc(OCC(=O)NS(=O)(=O)c2cc(F)ccc2F)c1 | -5.46
27 | CCc1nnc(CNC(=O)CCN2CCN(c3cccc(C)c3)CC2)s1 | -4.25
28 | CC(C)(O)CSCCNC(=O)c1ccc(F)cc1Cl | -2.51
29 | NC(=O)C1CN(C(=O)c2ccc(F)cc2)CCN1CCc1ccccc1 (stereo not drawn) | -4.6
30 | COc1cncc(N2CCN(Cc3cccn3C)CC2)n1 | 3.9
31 | COCC(=O)N1CCC(c2nc3ccc(-c4ccccc4)cn3n2)CC1 | -7.3
32 | CC(c1ccc(Cl)cc1)N1CCN(CCS(N)(=O)=O)CC1 (stereo not drawn) | -0.779
33 | CNC(=O)c1nc(CN2CCOC(CCCC(C)C)C2)no1 (stereo not drawn) | -16.2
34 | c1cncc(N2CC[C@@H]3CN(CC4CC4)C[C@@H]3C2)c1 | -26.1
35 | CN1CCN(S(=O)(=O)c2cccc(F)c2)Cc2cccnc21 | -2.06
36 | Cc1cc(N2CCN3CCCCC3C2)n2nc(C)c(C)c2n1 (stereo not drawn) | 1.57
37 | Cc1ccccc1N1CCN(C(=O)Cc2ccc3c(c2)OCO3)CC1=O | -2.79
38 | Cc1nccn1-c1ccc(N2CCC(NC(C)CC(C)C)CC2)cc1 (stereo not drawn) | 10.6
39 | Cc1nc(CN2CCC3(CCN(Cc4nccn4C)CC3)C2=O)cs1 | -7.58
40 | Cc1ccc(NC(=O)N2CC[C@@H](O)C2)c(-c2nc(C3CC3)no2)c1 | -3.95
41 | CCc1n[nH]c(SCC(=O)N2CCc3[nH]nc(C4CCC4)c3C2)n1 | -0.161
42 | CCOc1cccc(NC(=O)c2cc[nH]n2)n1 | -3.18
43 | c1ccc(OCc2nnc3n2CCN(CC2CC2)C3)nc1 | -13.3
44 | Cc1nc(O)cc(CCNC(=O)CC[C@@H]2CCCN3CCCC[C@H]23)n1 | -9.84
45 | Cc1nc(C(C)C)sc1CNC(=O)CCCN1CCCCC1 | 30.6
46 | Cn1cc(S(=O)(=O)N(Cc2ccc(F)cc2F)C2CC2)cc1C(N)=O | -7.08

Row | Structure (SMILES) | cytotoxicity at 70.5 h [%]
47 | CN1CCCN(C(=O)c2nc3c(o2)CN(C(=O)c2cccnc2)C3)CC1 | -1.59
48 | CN1CCN(C(=O)c2[nH]nnc2Nc2ccccc2F)CC1 | -14.3
49 | CCc1ccc(-n2c(=O)[nH]c3nc(N4CCSCC4)ncc3c2=O)cc1 | -8.65
50 | O=C(NCCNc1ncccn1)NCCSC(F)(F)F | -10.7
51 | CCN(c1cc(C)cc(C)c1)S(=O)(=O)c1cc(C(=O)O)cs1 | -7.47
52 | Cc1cc(C)c(CNC(=O)NCC2Cc3ccccc3O2)c(=O)[nH]1 (stereo not drawn) | -6.51
53 | CCN(CC)Cc1nnc2sc(-c3cc(C(C)C)[nH]n3)nn12 | -8.88
54 | O=C(C1CCS(=O)(=O)CC1)N1C[C@H]2CC[C@@H]1CN(Cc1ccccc1)C2 | 10.4
55 | Cn1cc(C2CC3(CCN(C(=O)c4cccs4)CC3)NC2=O)cn1 (stereo not drawn) | 1.02
56 | CNC(=O)c1ccc(C(=O)N2CCCC(n3ccnc3)C2)cn1 (stereo not drawn) | -15.9
57 | COc1ccc(OC)c(C2CCN(C3CCOCC3)C2)c1 (stereo not drawn) | 6.32
58 | COCCN(C)c1nc(-c2ccncc2)nc2c1CCN(C(C)=O)C2 | -7.41
59 | CS(=O)(=O)NCC1CCCN(C(=O)COc2ccc(F)cc2)C1 (stereo not drawn) | -15.8
60 | O=C(CN1CCS(=O)(=O)CC1)NC1CCCCc2ccccc21 (stereo not drawn) | -1.09
61 | Cc1nc(CN2C(=O)C[C@@H]3[C@@H]2CCN3CC2CCOCC2)cs1 | 23.6
62 | CCc1nc(CN2CCCN(C(=O)c3cn[nH]c3C)CC2)cs1 | -6.19
63 | CN(c1ncccc1CNC(=O)c1cscn1)C1CCCCC1 | 0.847
64 | Cc1ccc(NC2CCN(C(=O)c3ccc(C)o3)CC2)nn1 | -0.446
65 | COC1CN(C(=O)NC2CCCC2)CCC(=O)N(C)c2ccccc21 (stereo not drawn) | -1.11
66 | Cn1cnnc1CN1CCC2(CCC(=O)N(Cc3ccccc3)C2)CC1 | -4.83
67 | COCCc1noc(CN2CCCC2Cn2cc(C)cn2)n1 (stereo not drawn) | 18.1
68 | Cc1noc(Cl)c1CC(=O)N1CCCC(n2cccn2)C1 (stereo not drawn) | -4.55
69 | Cc1noc(C)c1CN1C[C@@H]2COC[C@H](C(=O)N3CCCCO3)[C@@H]2C1 | -13

Row | Structure (SMILES) | cytotoxicity at 70.5 h [%]
70 | CCn1c(CN(C)CC(=O)N(C)C)nc2c(F)cccc21 | -11.7
71 | CCc1cccc(C)c1NC(=O)C1CC(=O)N(Cc2ccccn2)C1 (stereo not drawn) | -3.75
72 | Cc1nccc(N[C@H]2CN(C(=O)C3(C#N)CCOCC3)C[C@@H]2C(C)C)n1 | 12
73 | c1csc(-c2noc(CN3CCCC3Cn3cccn3)n2)c1 (stereo not drawn) | -2.35
74 | COc1cccc(S(=O)(=O)NC(=O)COc2c(C)cccc2C)c1 | -9.64
75 | Cn1nc(CNC(=O)CC#N)c2c1CN(C(N)=O)CC2 | 11.4
76 | CN1CC(=O)N(c2cccc(F)c2)CC12CCN(Cc1ccncc1)C2 (stereo not drawn) | 9.43
77 | Cc1nn(C)cc1Cn1c(=O)cnc2ccccc21 | -19.1
78 | O=C1[C@H]2CN(Cc3ccoc3)C[C@H]2CN1Cc1ccncc1 | -1.61
79 | CN(C)c1cc(CNC(=O)c2cccnc2O)ccn1 | -12.1
80 | NC(=O)C1CCN(C(=O)NC2CCN(CC3CCCC3)C2)CC1 (stereo not drawn) | 9.67
81 | Cn1c(=O)cc(C(=O)NC(Cc2ccsc2)c2cccnc2)[nH]c1=O (stereo not drawn) | -3.19
82 | CO[C@@H]1CC[C@H]2[C@H]1OCCN2C(=O)c1nn(C)c2ccccc12 | 20.6
83 | COCCO[C@@H]1C[C@H]2CN(C(=O)c3cccnc3)CCN2C1 | -6.81
84 | Cc1c(C(=O)N2CCN(c3ncccn3)CC2)n(C)c2ccc(Cl)cc12 | -7.85
85 | O=C(CCCNC(=O)NCC1CCCO1)Nc1ccc(Cl)cc1 (stereo not drawn) | -8.55
86 | COc1ccc(Oc2ncccc2C(N)=O)cc1CN1CCCC1 | -7.33
87 | N#Cc1cccnc1OC1CCN(S(=O)(=O)c2ccc(F)c(Cl)c2)CC1 | -14.2
88 | O=C(O)c1cn2cc(C(F)(F)F)ccc2n1 | 2.77
89 | CCn1cc(-c2nn3c(C(F)(F)F)nnc3s2)cn1 | -16.2
90 | Cc1ncc(CN(C)C)c(C2CCCN2c2ncccn2)n1 (stereo not drawn) | -7.95
91 | O=C(CCCn1cncn1)NC1(c2ccc(Cl)cc2)CCC1 | -1.83
92 | CCCN1CCC(N2CCN(c3cc(C)nc(COC)n3)CC2)CC1 | 3.64

Row | Structure (SMILES) | cytotoxicity at 70.5 h [%]
93 | COc1ccc2cc(C(=O)N3CCCCC3Cn3cccn3)[nH]c2c1 (stereo not drawn) | -3.69
94 | CS(=O)(=O)NCc1cncc2c1CCN(C(=O)c1ccccn1)C2 | -12.5
95 | CC[C@H]1CN(C(=O)c2cnc(N3CCN(C)CC3)nc2C)CC[C@@]1(C)O | -7.86
96 | O=C(NCCCO)Nc1cccc(Cl)c1F | -8.31
97 | CCc1nccn1-c1cccc(C2CCN(C(=O)COC)CC2)n1 | 0.0936
98 | COC(=O)C1CCN(c2cncc(-n3nc(C)cc3C)n2)CC1 | 2.18
99 | Cc1ccc(C(=O)N2CCN(CCc3cccs3)CC2)c(=O)[nH]1 | -8.54
100 | CCn1cc(NC(=O)N2CCN(C(=O)Oc3ccccc3)CC2)cn1 | -4.12
101 | CN(C)C(=O)COC[C@@]12CCC[C@@H]1CN(C1CCC1)C2 | -10.9
102 | Cc1cc(CCC(=O)O)nc(C2CCCN2c2ccnc(C)n2)n1 (stereo not drawn) | -6.16
103 | CCOCC(=O)N1C[C@H]2CCC[C@@]2(COC)C1 | -7.78
104 | CC(Oc1cccc(Cl)c1)C(=O)Nc1cnn(CC(=O)NC2CC2)c1 (stereo not drawn) | -17.2
105 | CCS(=O)(=O)NC(CCSC)C(=O)Nc1ccc(C)cc1C (stereo not drawn) | -88.5
106 | O=c1c2cc3c(cc2nnn1Cc1cccc(F)c1)OCCO3 | -9.5
107 | COc1ccc(OC2CCN(C(=O)C3CCCN(C)C3)CC2)cc1 (stereo not drawn) | -0.196
108 | CN1CCN(CCCN(C)S(=O)(=O)C2CCCCC2)CC1 | -1.58
109 | Cn1ncnc1CNc1ccccc1C(=O)NC(C)(C)C | -100
110 | O=C(NCCN1CCOCC1)c1n[nH]c(=O)c2ccccc12 | -10.8
111 | CNc1cc(C2CCN2c2ncccn2)nc(C)n1 (stereo not drawn) | -6.05
112 | NC(=O)C1CN(c2ccc(Br)cn2)CCO1 (stereo not drawn) | -26.8
113 | Cc1ccc(OCC(=O)Nc2ccc(S(C)(=O)=O)cc2)cc1C | 14
